# Laboratory results as given in US20030153618A1, “Treatment and prevention of herpes simplex infections” (priority 1999, published 2003).
# Key:
# [1] = system: HSV, Type II; assay: Direct plaque-forming unit (PFU) count in BSC cells in defined media with set lysine (or derivative):arginine ratio; type: cell-based; details: average of three tests
# Protocol: Absorbed virons were absorbed in susceptible cells in chemically defined media and the number of plaques made were counted. (See Davis, B. D., et al., Microbiology, 2nd Ed., Harper & Row, 1973, Part V, and sources cited therein for procedural details and discussion of the plaque method.)
# The cell line chosen was green monkey kidney cells (BSC) that have been passed greater than 41 times. […] The virons were added to a confluent lawn of BSC cells and allowed to absorb at 25° C. for one hour. The unabsorbed virons and the media were removed by washing three times in PBS. […] The control media contained a lysine/arginine ratio of 1:1. The plaques were counted when easily readable. Flasks are done in triplicate.
# [2] = system: Herpes simplex II virus; assay: Back titration plaque assay: PFU counts at stated amounts of compound under test and arginine; type: cell-based, Herpes simplex II virus (BSC cells)
# Protocol: The following experiments were conducted by back titration: Herpes simplex II virus from laboratory stocks was used. BSC cells were grown to confluence in Eagles medium with 15% fetal calf serum, 150 units per milliliter of penicillin and 100 micrograms per milliliter of streptomycin. The cultures were inoculated with 500 PFU of HS II. The virons were allowed to absorb for one hour at 25° C. The tissue cultures were then washed three times with sterile PBS to remove excess media and non-absorbed virons. The cells were then incubated at 37° C. until four-plus cytopathic effects were observed. The cells were then disrupted by slow freeze-thaw two times. The suspension was then clarified by slow speed centrifugation at 4° C. The supemanant suspension was then added to confluent BSC cultures. After one hour absorption, the cells were washed with PBS twice. The cells were overlaid in defined reagent (in triplicate) Eagles media in noble agar. The cells were then incubated at 37° C. until the plaques were easily counted, usually 40 t 72 hours. the cells were then washed two times with PBS and then fixed with 10% H2CO and a 2% sodium acetate. The cells were then stained in 0.1% crystal violet in ethanol. In the tables which follow the concentration of the compound to be tested, in micrograms per milliliter, is listed across the top of the table and the concentration of arginine in micrograms per milliliter is listed down the left side of the table, the count of plaque-forming units being shown in the matrix.
structure (smiles),measurement,setting,value
CC(N)CCCC(N)C(=O)O (stereo not shown) [6-Methyl lysine],P.F.U. Count,[1]; Compound Ratio to Arginine 10:1,<5
same,P.F.U. Count,[1]; Compound Ratio to Arginine 100:1,<5
same,order of blocking the arginine molecule (rank of efficacy),[2]; among the tested derivatives,third most efficacious
same,P.F.U. Count,"[2]; compound 10 μg/ml, arginine 0 μg/ml",0
same,P.F.U. Count,"[2]; compound 10 μg/ml, arginine 2.5 μg/ml",0
same,P.F.U. Count,"[2]; compound 10 μg/ml, arginine 5.0 μg/ml",0
same,P.F.U. Count,"[2]; compound 10 μg/ml, arginine 7.5 μg/ml",0
same,P.F.U. Count,"[2]; compound 10 μg/ml, arginine 10 μg/ml",4.0 × 10^3
same,P.F.U. Count,"[2]; compound 10 μg/ml, arginine 15 μg/ml",1.8 × 10^3
same,P.F.U. Count,"[2]; compound 10 μg/ml, arginine 20 μg/ml",2.8 × 10^6
same,P.F.U. Count,"[2]; compound 10 μg/ml, arginine 25 μg/ml",2.7 × 10^5
same,P.F.U. Count,"[2]; compound 25 μg/ml, arginine 0 μg/ml",0
same,P.F.U. Count,"[2]; compound 25 μg/ml, arginine 2.5 μg/ml",0
same,P.F.U. Count,"[2]; compound 25 μg/ml, arginine 5.0 μg/ml",0
same,P.F.U. Count,"[2]; compound 25 μg/ml, arginine 7.5 μg/ml",0
same,P.F.U. Count,"[2]; compound 25 μg/ml, arginine 10 μg/ml",2.1 × 10^3
same,P.F.U. Count,"[2]; compound 25 μg/ml, arginine 15 μg/ml",2.1 × 10^3
same,P.F.U. Count,"[2]; compound 25 μg/ml, arginine 20 μg/ml",2.4 × 10^5
same,P.F.U. Count,"[2]; compound 25 μg/ml, arginine 25 μg/ml",2.9 × 10^5
same,P.F.U. Count,"[2]; compound 50 μg/ml, arginine 0 μg/ml",0
same,P.F.U. Count,"[2]; compound 50 μg/ml, arginine 2.5 μg/ml",0
same,P.F.U. Count,"[2]; compound 50 μg/ml, arginine 5.0 μg/ml",0
same,P.F.U. Count,"[2]; compound 50 μg/ml, arginine 7.5 μg/ml",0
same,P.F.U. Count,"[2]; compound 50 μg/ml, arginine 10 μg/ml",0
same,P.F.U. Count,"[2]; compound 50 μg/ml, arginine 15 μg/ml",1.7 × 10^3
same,P.F.U. Count,"[2]; compound 50 μg/ml, arginine 20 μg/ml",1.7 × 10^5
same,P.F.U. Count,"[2]; compound 50 μg/ml, arginine 25 μg/ml",2.0 × 10^5
same,P.F.U. Count,"[2]; compound 100 μg/ml, arginine 0 μg/ml",0
same,P.F.U. Count,"[2]; compound 100 μg/ml, arginine 2.5 μg/ml",0
same,P.F.U. Count,"[2]; compound 100 μg/ml, arginine 5.0 μg/ml",0
same,P.F.U. Count,"[2]; compound 100 μg/ml, arginine 7.5 μg/ml",0
same,P.F.U. Count,"[2]; compound 100 μg/ml, arginine 10 μg/ml",0
same,P.F.U. Count,"[2]; compound 100 μg/ml, arginine 15 μg/ml",0
same,P.F.U. Count,"[2]; compound 100 μg/ml, arginine 20 μg/ml",6.4 × 10^4
same,P.F.U. Count,"[2]; compound 100 μg/ml, arginine 25 μg/ml",5.8 × 10^4
same,P.F.U. Count,"[2]; compound 200 μg/ml, arginine 0 μg/ml",0
same,P.F.U. Count,"[2]; compound 200 μg/ml, arginine 2.5 μg/ml",0
same,P.F.U. Count,"[2]; compound 200 μg/ml, arginine 5.0 μg/ml",0
same,P.F.U. Count,"[2]; compound 200 μg/ml, arginine 7.5 μg/ml",0
same,P.F.U. Count,"[2]; compound 200 μg/ml, arginine 10 μg/ml",0
same,P.F.U. Count,"[2]; compound 200 μg/ml, arginine 15 μg/ml",0
same,P.F.U. Count,"[2]; compound 200 μg/ml, arginine 20 μg/ml",6.9 × 10^4
same,P.F.U. Count,"[2]; compound 200 μg/ml, arginine 25 μg/ml",4.7 × 10^4
same,P.F.U. Count,"[2]; compound 300 μg/ml, arginine 0 μg/ml",0
same,P.F.U. Count,"[2]; compound 300 μg/ml, arginine 2.5 μg/ml",0
same,P.F.U. Count,"[2]; compound 300 μg/ml, arginine 5.0 μg/ml",0
same,P.F.U. Count,"[2]; compound 300 μg/ml, arginine 7.5 μg/ml",0
same,P.F.U. Count,"[2]; compound 300 μg/ml, arginine 10 μg/ml",0
same,P.F.U. Count,"[2]; compound 300 μg/ml, arginine 15 μg/ml",0
same,P.F.U. Count,"[2]; compound 300 μg/ml, arginine 20 μg/ml",5.0 × 10^3
same,P.F.U. Count,"[2]; compound 300 μg/ml, arginine 25 μg/ml",4.0 × 10^4
same,P.F.U. Count,"[2]; compound 400 μg/ml, arginine 0 μg/ml",0
same,P.F.U. Count,"[2]; compound 400 μg/ml, arginine 2.5 μg/ml",0
same,P.F.U. Count,"[2]; compound 400 μg/ml, arginine 5.0 μg/ml",0
same,P.F.U. Count,"[2]; compound 400 μg/ml, arginine 7.5 μg/ml",0
same,P.F.U. Count,"[2]; compound 400 μg/ml, arginine 10 μg/ml",0
same,P.F.U. Count,"[2]; compound 400 μg/ml, arginine 15 μg/ml",0
same,P.F.U. Count,"[2]; compound 400 μg/ml, arginine 20 μg/ml",690
same,P.F.U. Count,"[2]; compound 400 μg/ml, arginine 25 μg/ml",3.9 × 10^3
same,P.F.U. Count,"[2]; compound 500 μg/ml, arginine 0 μg/ml",0
same,P.F.U. Count,"[2]; compound 500 μg/ml, arginine 2.5 μg/ml",0
same,P.F.U. Count,"[2]; compound 500 μg/ml, arginine 5.0 μg/ml",0
same,P.F.U. Count,"[2]; compound 500 μg/ml, arginine 7.5 μg/ml",0
same,P.F.U. Count,"[2]; compound 500 μg/ml, arginine 10 μg/ml",0
same,P.F.U. Count,"[2]; compound 500 μg/ml, arginine 15 μg/ml",0
same,P.F.U. Count,"[2]; compound 500 μg/ml, arginine 20 μg/ml",56
same,P.F.U. Count,"[2]; compound 500 μg/ml, arginine 25 μg/ml",3.71 × 10^3
